Laboratory results published in US11045480B2, “Anti-huLRRC15 antibody drug conjugates and methods for their use” (AbbVie Inc., priority 2015, dated 2021).

Key:
Assay type in all cases: in vivo, mouse
[1] = test system: NW231 breast cancer xenograft; assay: NW231 xenograft tumor growth; conditions: NW231, SCID mice; biologics 12 mg/kg IP Q4D×6; doxorubicin 1 mg/kg IV days 0, 4, 8, 13, 18 (FIG. 20D)
Method: In FIG. 20D, NW231 breast cancer cells (10 million) were implanted subcutaneously into SCID mice, and mice were randomized when the tumors reached ˜150 mm^3 and dosed with biologics at 12 mg/kg intraperitoneally on a Q4D×6 (one dose given every 4 days for a total of 6 doses), while doxorubicin was dosed intravenously at 1 mg/kg on days 0, 4, 8, 13 and 18.

EBC-1 tumors = assay: Ex vivo analysis (flow cytometry, microscopy, IHC) of treated EBC-1 tumors
Method: For the experiments, 5 million EBC-1 cells grown in vitro were implanted per mouse into the right flank of SCID-beige mice. Tumors were size-matched at ˜300 mm^3 and treated on day 0 and day 4 with 6 mg/kg intraperitoneally for each biologic drug shown in FIG. 15A. Tumors were harvested from the mice in each group 11 days post randomization and start of treatment. Tumors were dissociated into single cell suspensions using Miltenyi Biotec gentleMACS Dissociator according to the manufacturer's guidelines for the dissociation of tough tumors. Dissociated tumor cells were passed through a 70 μm filter, counted, and immediately used for flow cytometry. Single-cell suspensions were resuspended in PBS with 10% FBS and 10 μg/mL FcR block (anti-mouse CD16/CD32, clone 93, eBioscience, Cat. #16-0161.) The following directly conjugated antibodies were used for flow cytometry: human IgG1 κ isotype control (AB095) AF647, anti-huLRRC15 (hu208.4.1a.1a) AF647, anti-FAP (huFAP MAB5) AF647, mouse anti-human CD326 (EPCAM) PE (clone 1B7, eBioscience, Cat. #12-9326), anti-mouse CD11b PE (clone M1/70, eBioscience, Cat. #12-0112), anti mouse CD11c PE (clone N418, eBioscience, Cat. #12-0114), and anti-mouse F4/80 PE (clone BM9, eBioscience, Cat. #12-4801). Ex vivo EBC1 tumor cell suspensions were incubated with fluor-conjugated antibodies for 20 minutes on ice and washed twice using PBS with 1% FBS. Flow cytometry data were collected using a Becton Dickinson FacsCalibur, and data were analyzed using FlowJo™ analysis software (TreeStar). The ex vivo flow cytometry data (FIGS. 15B-15E) are shown as a percentage of cells gated positive for each antigen relative to total live cells gated via FSC/SCC. It should be noted that percentages reported are relative values to the total ex vivo EBC1 tumor and that a reduction in one cell population (e.g., EPCAM positive cancer cells) would result in an inverse increase in remaining cell populations when this analysis method is used.
Dissociated single-cell suspensions of the ex vivo EBC1 tumors shown in FIG. 15A were seeded at 120,000 live cells into tissue culture microscopy chamber slides. Cells were allowed to sit and incubate for 48 hours, and then fixed in 2% paraformaldehyde for 15 min at 37° C. The cells were washed with PBS and permeabilized using 0.3% Triton-X in PBS at 37° C. for 30 min. Cells were washed with PBS and blocked in 5% BSA for 30 min at 37° C. Cells were incubated with anti-α-SMA (clone 1A4 DAKO, Cat. #36962) and then detected with AlexaFluor AF594 (Life Technologies, Cat. #A21203) secondary antibody (2 μg/mL) for 30 min at 37° C. Subsequently, cells were stained using anti-human EpCAM-AF488 (Cell Signaling Technology, Cat. #5198) and washed 3× in PBS. Finally the slides were removed from the chambers and mounted with a coverslip using ProLong Diamond Anti-Fade with DAPI (Life Technologies, Cat. #36962). Image acquisition was performed using Zeiss Axiovision Software on a Zeiss Axiovert 200M inverted fluorescent microscope. Statistical differences between groups were determined using unpaired T tests in GraphPad Prism™. […] The percentage of pHH3 positive cells decreased with additional dosing and longer time (FIG. 15H) correlating with cancer cell death and tumor shrinkage (FIG. 15A).

[2] = test system: EBC-1 (human squamous NSCLC) xenograft; assay: EBC-1 xenograft tumor growth
Method: For the experiments, five million cells (EBC-1) that were grown in vitro were inoculated subcutaneously per mouse into the right flank of female SCID-Beige mice. Tumors were size matched at ˜200 mm^3, and dosed intraperitoneally (IP) Q4D×6 (1 dose given every 4 days for a total of 6 doses) as shown in FIG. 13A. Measurements of the length (L) and width (W) of the tumors were taken via electronic caliper and the volume was calculated according to the following equation: V=L×W^2/2.
For this experiment, tumors were size matched at ˜200 mm^3, and dosed intraperitoneally (IP) Q7D×2 (1 dose given every 7 days for a total of 2 doses) as shown in FIG. 13C. […]
5 million cells were implanted subcutaneously into SCID/Beige mice, and mice were randomized when tumor group mean volumes reached ˜200 mm^3.
In FIG. 20C, EBC1 cells (5 million) were implanted subcutaneously into SCID/Beige mice and mice were randomized when the tumors reached ˜200 mm^3 and dosed with biologics at 6 mg/kg intraperitoneally on a Q7D×2 (one dose given every 7 days for a total of 2 doses), while erlotinib was dosed orally daily for 10 days at 50 mg/kg, and carboplatin was dosed intraperitoneally Q4D×3 (one dose given every 4 days for a total of 3 doses) at 50 mg/kg.
In FIG. 21B, EBC-1 squamous NSCLC cells (5 million) were implanted subcutaneously into SCID/Beige mice, and mice were randomized when the tumors reached ˜200 mm^3 and dosed with biologics at 6 mg/kg intraperitoneally on a Q7D×2 (one dose given every 7 days for a total of 2 doses), while gemcitabine was dosed intraperitoneally at 100 mg/kg (Q3D×3) (one dose given every three days for 3 doses total).

[3] = EBC-1 tumors, 6 mg/kg IP day 0 and 4, harvested day 11 (FIG. 15F)
[4] = EBC1, SCID/Beige mice, biologics 6 mg/kg IP Q7D×2, erlotinib 50 mg/kg orally daily ×10, carboplatin 50 mg/kg IP Q4D×3 (FIG. 20C)
[5] = EBC-1, SCID-Beige mice, 6 mg/kg IP Q4D×6 (FIG. 13A)
[6] = EBC-1, ADC plus second agent of FIG. 21B (sentence: docetaxel; method and legend: gemcitabine)

huM25-vcMMAE-E2: huM25 conjugated with maleimidocaproyl val-cit PABA MMAE, preparation enriched in DAR2 by HIC
TGImax [1]: 89%
cancer cells in ex vivo tumor (microscopy count) (EBC-1 tumors; [3]): significant decrease
fibroblast population in ex vivo tumor (EBC-1 tumors; [3]): continued to persist
phosphohistone H3 (pHH3) staining, mitotic figures (EBC-1 tumors; EBC-1 tumors, 6 mg/kg, after 72 hours (FIG. 15G)): higher number of mitotic figures
staining for CD45 and F4/80 (EBC-1 tumors; EBC-1 tumors, day 11 post-treatment, 6 mg/kg, compared with isotype ADC (FIG. 15I)): enhanced staining
immune infiltrate (CD11c or F4/80 positive cells) (EBC-1 tumors; ex vivo flow cytometry of EBC-1 tumors post treatment (FIGS. 15D-15E)): increase in immune infiltrate
TGD [2, 4]: 129%
TGImax [2, 4]: 92%
maximum tumor growth inhibition (TGImax) [2, 5]: 97%
tumor growth delay (TGD) [2, 5]: 305%
TGD, single agent ([2]; EBC-1, SCID/Beige mice, huM25-vcMMAE-E2 at 3 mg/kg (method: biologics 6 mg/kg IP Q7D×2), method: gemcitabine 100 mg/kg IP Q3D×3, result sentence names docetaxel (FIG. 21B)): 144%
TGD, used adjunctively [2, 6]: 348%
TGImax, used adjunctively [2, 6]: 98%
